# Assay results: patent US20100081679A1, “DIAMINOPYRIMIDINES AS FUNGICIDES” (Bayer CropScience AG, priority 2007, published 2010)
# Marks after values point to notes of the source that are not given here.
# Assay: logP determination via retention times, calibrated with unbranched alkan-2-ones
# Type: physicochemical
# Conditions: HPLC on reversed-phase C 18, EEC Directive 79/831 Annex V.A8; method *: 40° C., 0.1% aqueous formic acid and acetonitrile, linear gradient 10% to 95% acetonitrile
row,logP,SMILES
1,1.44*,CNC(=O)c1cccc(Nc2ncc(Cl)c(NCC3CC3)n2)c1 [compound 511]
2,1.66*,CCC(=O)Nc1cccc(Nc2ncc(Br)c(NCC3CC3)n2)c1 [compound 483]

# Continued, compound first:
row,SMILES,logP
1,CC(=O)Nc1ccc(Nc2ncc(Br)c(NCC3CC3)n2)cn1 [compound 481],1.47*
2,O=CNc1ccc(Nc2ncc(Cl)c(NCC3CC3)n2)cc1 [compound 544],1.17*
3,CN(C)C(=O)Nc1ccc(Nc2ncc(Cl)c(NCC3CC3)n2)cc1 [compound 548],1.49*

# Same assay, conditions: HPLC on reversed-phase C 18, method **: 43° C.; 0.1% aqueous phosphoric acid and acetonitrile; linear gradient 10% to 95% acetonitrile
row,logP,SMILES
1,3.59**,CSc1cccc(Nc2ncc(Cl)c(N(C)C3CC3)n2)c1 [compound 738]

# Same assay, conditions: HPLC on reversed-phase C18, method **: 43° C.; mobile phase 0.1% aqueous phosphoric acid and acetonitrile; linear gradient 10% to 95% acetonitrile
row,logP,SMILES
1,2.52**,O=S(=O)(c1ccc(Nc2ncc(Cl)c(NC3CC3)n2)cc1)N1CCCC1 [compound 307]

# Same assay, conditions: HPLC on reversed-phase C18, method *: 40° C., 0.1% aqueous formic acid and acetonitrile, linear gradient 10% to 95% acetonitrile
row,logP,SMILES
1,1.44*,CS(=O)(=O)Nc1ccc(Nc2ncc(Br)c(NC3CC3)n2)cc1 [compound 756]
2,3.46*,Clc1ccc(Nc2ncc(Cl)c(NC3CC3)n2)cc1Cl [compound 941]
3,4.14*,CC(C)c1cccc(Nc2ncc(C(F)(F)F)c(NC3CC3)n2)c1 [compound 973]
4,2.26*,N#Cc1cccc(Nc2ncc(Br)c(NC3CC3)n2)c1 [compound 741]
5,1.44*,CCNC(=O)c1cccc(Nc2ncc(Br)c(NC3CC3)n2)c1 [compound 702]
6,3.46*,Cc1cc(Cl)c(Br)cc1Nc1ncc(Cl)c(NC2CC2)n1 [compound 933]
7,2.21*,CC(C)(C)OC(=O)NCc1ccc(Nc2ncc(Cl)c(NCC3CC3)n2)cc1 [compound 162]
8,1.47*,O=C1CCCCN1c1cccc(Nc2ncc(Cl)c(NC3CC3)n2)c1 [compound 713]
9,1.17*,Oc1ccc(Nc2ncc(Br)c(NC3CC3)n2)cc1 [compound 114]

# More lines, now with the values behind:
row,SMILES,logP
1,CN(C)S(=O)(=O)Oc1ccc(Nc2ncc(Cl)c(NC3CC3)n2)cc1 [Example 102],2.08*
2,CCN(CC)C(=O)c1cccc(Nc2ncc(Cl)c(NC3CC3)n2)c1 [compound 701],1.86*
3,CC(C)(C)Sc1ccc(Nc2ncc(Cl)c(NC3CC3)n2)cc1 [compound 152],3.73*
4,Clc1ccc(Nc2ncc(Cl)c(NC3CC3)n2)cc1Br [compound 942],3.55*
5,COc1cccc(Nc2ncc(Cl)c(NCC3CC3)n2)c1 [compound 668],1.97*
6,O=C(Nc1ccccc1)Nc1cccc(Nc2ncc(Cl)c(NC3CC3)n2)c1 [compound 717],1.93*
7,FC(F)(F)c1cc(Nc2ncc(Cl)c(NC3CC3)n2)cc(C(F)(F)F)c1 [compound 903],4.56*
8,CCCCc1ccccc1Nc1ncc(Cl)c(NC2CC2)n1 [compound 911],2.3*
9,N#Cc1cnc(Nc2ccc(N3CCCC3=O)cc2)nc1NC1CC1 [compound 157],1.89*
10,CC(C)C(=O)Nc1ccc(Nc2ncc(Cl)c(NC3CC3)n2)cc1 [compound 111],1.43*

# Same assay, conditions: HPLC on reversed-phase C18, method *: 40° C.; mobile phase 0.1% aqueous formic acid and acetonitrile; linear gradient 10% to 95% acetonitrile
row,logP,SMILES
1,2.27*,CC(C)(C)OC(=O)Nc1cccc(Nc2ncc(Cl)c(NC3CC3)n2)c1 [compound 330]
2,3.44*,FC(F)Oc1cc(Nc2ncc(Br)c(NC3CC3)n2)ccc1Cl [compound 311]
3,3.18*,FC(F)(F)Oc1cccc(Nc2ncc(Cl)c(NC3CC3)n2)c1 [compound 300]

# The next lines start with the compound.
row,SMILES,logP
1,Clc1cc(Cl)cc(Nc2ncc(Cl)c(NC3CC3)n2)c1 [compound 291],4.04*
2,COC(=O)Cc1cccc(Nc2ncc(Cl)c(NC3CC3)n2)c1 [compound 290],1.73*

# Same assay, conditions: HPLC on reversed-phase C18 column (EEC Directive 79/831 Annex V.A8); method **: 43° C.; 0.1% aqueous phosphoric acid and acetonitrile; linear gradient 10% to 95% acetonitrile
row,logP,SMILES
1,3.49**,CSc1cccc(Nc2ncc(C(F)(F)F)c(NC3CC3)n2)c1 [compound 266]

# Same assay, conditions: HPLC on reversed-phase C18 column (EEC Directive 79/831 Annex V.A8); method *: 40° C.; 0.1% aqueous formic acid and acetonitrile; linear gradient 10% to 95% acetonitrile
row,logP,SMILES
1,2.8*,O=S(=O)(c1cccc(Nc2ncc(Cl)c(NC3CC3)n2)c1)N1CCCCC1 [compound 246]
2,3.55*,FC(F)(F)Nc1cccc(Nc2ncc(Cl)c(NC3CC3)n2)c1 [compound 184]
3,3.07*,CC(C)(C)NC(=O)c1ccc(Nc2ncc(C(F)(F)F)c(NCC3CC3)n2)cc1 [compound 207]
4,1.09*,Cc1cc(Nc2ncc(Cl)c(NC3CC3)n2)ccc1O [compound 180]
5,3.41*,CSc1cccc(Nc2ncc(C(F)(F)F)c(NCC3CC3)n2)c1 [compound 208]

# Second part, the compound before the results:
row,SMILES,logP
1,O=C1NC(=O)C(c2ccc(Nc3ncc(Cl)c(NC4CC4)n3)cc2)N1 (centres unmarked) [compound 176],0.61*
2,CSc1cccc(Nc2ncc(C(F)(F)F)c(NC3CC3)n2)c1 [compound 266],3.29*;
3,CN(C)S(=O)(=O)Oc1cccc(Nc2ncc(Cl)c(NC3CC3)n2)c1 [compound 244],2.26*
4,O=S1(=O)Cc2ccc(Nc3ncc(Cl)c(NC4CC4)n3)cc2C1 [compound 245],1.51*

# Same assay, conditions: HPLC reversed-phase C 18, EEC Directive 79/831 Annex V.A8; method **: 43° C., 0.1% aqueous phosphoric acid and acetonitrile, linear gradient 10% to 95% acetonitrile
row,logP,SMILES
1,1.57**,CON(C(C)=O)c1cccc(Nc2ncc(Cl)c(NC3CC3)n2)c1 [compound 850]

# Same assay, conditions: HPLC reversed-phase C 18, EEC Directive 79/831 Annex V.A8; method *: 40° C., 0.1% aqueous formic acid and acetonitrile, linear gradient 10% to 95% acetonitrile
row,logP,SMILES
1,2.08*,CN(C)C(=O)c1ccc(Nc2ncc(C(F)(F)F)c(NC3CC3)n2)cc1 [compound 824]
2,1.67*,CC(=O)Cc1cccc(Nc2ncc(Cl)c(NCC3CC3)n2)c1 [compound 781]
3,1.47*,COCC(C)NC(=O)c1cccc(Nc2ncc(Cl)c(NC3CC3)n2)c1 (centres unmarked) [compound 796]
4,2.56*,Brc1cnc(Nc2ccccc2)nc1NC1CC1 [compound 836]

# Same assay, conditions: method **: HPLC reversed-phase C 18, 43° C., 0.1% aqueous phosphoric acid and acetonitrile, linear gradient 10% to 95% acetonitrile
row,logP,SMILES
1,1.87**,CC(=O)c1cccc(Nc2ncc(Cl)c(NCC3CC3)n2)c1 [compound 13]
2,1.55**,O=C(O)c1ccc(Nc2ncc(Cl)c(NC3CC3)n2)cc1 [Example 35]
3,2.18**,CN(C)S(=O)(=O)c1cccc(Nc2ncc(Cl)c(NCC3CC3)n2)c1 [compound 49]
4,1.64**,CC(=O)NS(=O)(=O)c1ccc(Nc2ncc(Cl)c(NC3CC3)n2)cc1 [Example 24]

# Same assay, conditions: method **: HPLC reversed-phase C 18, temperature 43° C.; mobile phase 0.1% aqueous phosphoric acid and acetonitrile; linear gradient 10% to 95% acetonitrile
row,logP,SMILES
1,1.81**,CNC(=O)c1ccc(Nc2ncc(C(F)(F)F)c(NC3CC3)n2)cc1 [compound 651]

# Same assay, conditions: method **: HPLC, reversed-phase C 18, 43° C., mobile phase 0.1% aqueous phosphoric acid and acetonitrile, linear gradient from 10% to 95% acetonitrile
row,logP,SMILES
1,2.31**,Clc1cnc(Nc2cccc(CBr)c2)nc1NC1CC1 [compound 1023]
2,2**,CC1CC1Nc1nc(Nc2ccccc2)ncc1Cl (centres unmarked) [compound 1008]
3,4.78**,COc1ccc(CN(c2nc(Nc3cccc(SC)c3)ncc2Cl)C2CC2)cc1 [compound 1026]

# Same assay, conditions: method *: HPLC reversed-phase C18, 40° C., 0.1% aqueous formic acid and acetonitrile, linear gradient 10% to 95% acetonitrile
row,logP,SMILES
1,2.91*,COC(=O)c1ccc(Nc2ncc(Cl)c(NC3CC3)n2)cc1Cl [compound 378]
2,2.16*,CC(C)(C)NC(=O)c1cccc(Nc2ncc(Br)c(NCC3CC3)n2)c1 [compound 461]
3,1.49*,O=C1CCCN1c1ccc(Nc2ncc(Br)c(NC3CC3)n2)cc1 [Example 97]

# Second part, the compound before the results:
row,SMILES,logP
1,CC(C)CSc1cccc(Nc2ncc(Cl)c(NC3CC3)n2)c1 [compound 435],3.75*
2,CNC(=O)c1ccc(Nc2ncc(Br)c(NC3CC3)n2)cc1 [compound 382],1.39*
3,O=C1Cc2cc(Nc3ncc(Cl)c(NC4CC4)n3)ccc2N1 [Example 56],1.05*
4,COc1cc(Nc2ncc(C)c(NC3CC3)n2)cc(OC)c1OC [compound 52],1.47*
5,CNC(=O)Oc1cccc(Nc2ncc(Br)c(NC3CC3)n2)c1 [compound 386],1.56*
6,CC1(C(=O)Nc2ccc(Nc3ncc(Cl)c(NC4CC4)n3)cc2)CC1 [Example 64],1.66*

# Same assay, conditions: method *: HPLC reversed-phase C 18, temperature 40° C.; mobile phase 0.1% aqueous formic acid and acetonitrile; linear gradient 10% to 95% acetonitrile
row,logP,SMILES
1,1.53*,CCOC(=O)Nc1cccc(Nc2ncc(F)c(NC3CC3)n2)c1 [compound 596]
2,1.39*,O=C(NC1CC1)c1cccc(Nc2ncc(Cl)c(NC3CC3)n2)c1 [compound 629]
3,1.58*,O=C(Nc1ccc(Nc2ncc(F)c(NC3CC3)n2)cc1)C(F)(F)F [compound 583]

# The remaining lines, values behind:
row,SMILES,logP
1,O=C1CCCN1c1cccc(Nc2ncc(F)c(NC3CC3)n2)c1 [compound 599],1.37*
2,CSc1ccc(Nc2ncc(Cl)c(NCC3CC3)n2)cc1Cl [compound 626],3.15*
3,CNC(=O)c1ccc(Nc2ncc(C(F)(F)F)c(NC3CC3)n2)cc1 [compound 651],1.78*;
4,CC(=O)c1cccc(Nc2ncc(C#N)c(NC3CC3)n2)c1 [compound 610],2.23*

# Same assay, conditions: method *: HPLC, reversed-phase C 18, 40° C., mobile phase 0.1% aqueous formic acid and acetonitrile, linear gradient from 10% to 95% acetonitrile
row,logP,SMILES
1,3.65*,CCc1cccc(Nc2ncc(Cl)c(N(C)C3CC3)n2)c1 [compound 1058]
2,1.58*,COC(=O)c1cc(Nc2ncc(Cl)c(NC3CC3)n2)ccc1OC [compound 1004]
3,1.81*,COC(=O)c1cc(Nc2ncc(Cl)c(NC3CC3)n2)ccc1O [compound 993]

# Same assay, conditions: pH 2.3; read-out: logP (pH2.3)
row,chromatographic logP,SMILES
1,2.69,Clc1ncc(Br)c(NCC2CC2)n1 [5-bromo-2-chloro-N-(cyclopropylmethyl)pyrimidine-4-amine]
2,1.79,"Clc1ncc(Cl)c(NC2CC2)n1 [2,5-Dichloro-N-cyclopropylpyrimidine-4-amine]"
3,2.19,Clc1ncc(I)c(NC2CC2)n1 [2-chloro-N-cyclopropyl-5-iodopyrimidine-4-amine]
4,1.38,COc1cnc(Cl)nc1NC1CC1 [2-chloro-N-cyclopropyl-5-methoxypyrimidine-4-amine]
